US12233083B2, “Methods for the use of 5′-adenosine diphosphate ribose (ADPR)” (Invirsa, Inc., priority 2018, dated 2025)
“And” between values parts separate entries of the source, which are not always exact repeats. Equal values may be shown once. “Also recorded” adds a separate entry of the source. Read-outs that look alike come from different tables or passages of the source.

Tests used:
[1] = test system: RSV/A2; experiment: Cotton rat RSV lung infection: lung viral titer; assay type: in vivo; details: 0.5% soln, 50 μL IN BID, day 5, vs PBS
Method: (§1) Methods: In view of the reduction in hRSV cellular infection in A549 and human airway epithelial cells, an in vivo experiment in the Cotton Rat was carried out using RSVA2 infection. In this study, adult male cotton rats (6-8 weeks of age) were divided into groups of 4 animals each. Animals were pre-bled for serum collection and ear tagged for identification. All animals were infected via intranasal instillation with 0.1 mL of RSV/A2 at 10^5 plaque-forming units (pfu) per animal.
(§2) At each treatment the animals received 50 μL. On day 5, the animals were sacrificed for viral lung titers and cytokine analysis. Interferon gamma (IFNγ) and transforming growth factor beta (TGFβ) gene expression were analyzed by PCR. The cytokine mRNA level was normalized relative to beta actin.

[2] = test system: transforming growth factor beta (TGFβ); experiment: Cotton rat RSV lung infection: lung TGFβ gene expression by PCR; assay type: in vivo; details: 0.5% soln, 50 μL IN BID, day 5, vs PBS
Method: as §1, §2

[3] = test system: Sirt6; details: 60 μM
Method: Sirt6 expression using western blots was evaluated in human corneal epithelial cells. Cell Culture: Human corneal epithelial cells (ATCC) were grown to just below confluency (80-90%) at 37° C., 5% CO2. They were washed twice with sterile phosphate buffered saline (PBS) and serum starved for 2 hours at 37° C. […] They were incubated for either 15, 30, 60 or 120 minutes with treatment. After each time point, treatment was aspirated and cells were washed twice with ice cold PBS. Cells were lysed in ice-cold cell lysis buffer and rotated end-over-end at 4° C. for 30 minutes. They were then centrifuged at 14,000g for 30 minutes at 4° C. […] Samples were stored frozen at -20° C. until performing the Western Blot. […] Proteins were electrophoresed at [MUT] for approximately 50 minutes then transferred to nitrocellulose. After blocking the blot for 1 hour at room temperature in 3% BSA in a standard mixture of tris-buffered saline and Polysorbate 20 (TBST), primary antibody (anti-Sirtuin 6) was added in blocking buffer and incubated overnight at 4° C. The blot was washed 3 times with TBST and HRP-linked secondary antibody added at 1:2000 for 40 minutes at room temperature. The blot was again washed 3 times with TBST and developed with ECL reagents for 1 minute. Images were obtained with ChemiDoclt Imager (UVP, Upland CA) with exposures ranging from 30 seconds to 5 minutes. […]

[4] = test system: HRSV; experiment: Inhibition of HRSV replication in A549 cells (RSV with Renilla luciferase reporter); assay type: cell-based, human respiratory syncytial virus
[5] = target: purified recombinant GST-SIRT6 protein (Homo sapiens, UniProt Q8N6T7); details: first study
Method: This first set of studies was performed using a Western blot method (Rahnasto-Rilla, 2016, Methods Mol. Biol., 1436:259-269) for the in vitro evaluation of Sirt6 deacetylation activity. […] Acetylation level was detected with anti-H3K9Ac antibody and normalized to total H3 histone (FIG. 5 (b)).

[6] = test system: HRSV; experiment: Reduction of HRSV infection in primary human airway epithelial (HAE) cultures (luciferase); assay type: cell-based, human respiratory syncytial virus; details: 0.9 and 2.7 mg/ml, days 1 and 3 (24 and 72 hours) post inoculation
[7] = test system: HRSV; experiment: Reduction of HRSV cellular infection in A549 cells (RSV with GFP reporter, infected cells counted); assay type: cell-based, human respiratory syncytial virus
[8] = test system: HSV-1, strain MacIntyre; experiment: Plaque inhibition against HSV-1 strain MacIntyre in A549 cells; assay type: cell-based, herpes simplex virus type 1; details: for Percent plaque area (ImageJ): A549 cells, duplicate wells
Method: Background: […] Again, acyclovir was included as a positive control. […] Acyclovir was tested at 0.002 and 0.05 mM. A control, with no treatment was also evaluated. […] After virus adsorption, media was removed and monolayers overlaid with semisolid agarose media containing each drug dilution. Monolayers were fixed and stained with crystal violet to visualize virus plaques. Pictures of the test plates were submitted to client for image analysis. Percent plaque area was calculated using ImageJ, version 1.52i.

[9] = test system: Interferon gamma (IFNγ); experiment: Cotton rat RSV lung infection: lung IFNγ gene expression by PCR; assay type: in vivo; details: 0.5% soln, 50 μL IN BID, day 5, vs PBS
Method: as §1, §2

[10] = test system: Vero cells; details: African green monkey

Chain of purified recombinant GST-SIRT6 protein (Q8N6T7 whole entry): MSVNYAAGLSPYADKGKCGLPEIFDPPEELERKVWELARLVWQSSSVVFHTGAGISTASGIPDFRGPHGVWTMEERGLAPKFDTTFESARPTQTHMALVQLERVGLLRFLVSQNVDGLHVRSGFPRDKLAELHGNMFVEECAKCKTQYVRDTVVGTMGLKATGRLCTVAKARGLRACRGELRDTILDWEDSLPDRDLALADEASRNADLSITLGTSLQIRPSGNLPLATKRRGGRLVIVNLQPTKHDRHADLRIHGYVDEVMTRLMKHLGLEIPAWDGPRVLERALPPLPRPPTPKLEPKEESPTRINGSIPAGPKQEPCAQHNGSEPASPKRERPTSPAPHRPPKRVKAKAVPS

Nc1ncnc2c1ncn2[C@@H]1O[C@H](COP(=O)([O-])OP(=O)([O-])OC[C@H]2OC(O)[C@H](O)[C@@H]2O)[C@@H](O)[C@H]1O.[Li+].[Li+] (some centres unmarked) [Li2-ADPR, dilithium ADPR]
lung RSV titers [1]: reduced
lung TGFβ mRNA (normalized to beta actin) [2]: significant decrease
Sirt6 protein concentration relative to baseline (No Treat lane) ([3]; 30 minutes): 155%
Sirt6 protein concentration relative to baseline (No Treat lane) ([3]; two hours): returned to baseline
inhibition of RSV replication (luminescence), difference ([4]; 2.7 mg/ml): five
HRSV replication (luminescence) with increasing concentrations ([4]; days 1 and 2 after infection): significant dose-dependent inhibition
Sirt6 deacetylation activity (inverse of H3K9Ac / total H3) ([5]; between 0.01 and 1 μM): increasing activation
Sirt6 deacetylation activity (inverse of H3K9Ac / total H3) ([5]; concentrations of 10 μM and above): variable activity
RSV replication / percentage of cells infected in HAE cultures (luciferase activity) [6]: significantly inhibiting; also recorded: significant reduction
reduction of percentage of A549 cells infected with HRSV ([7]; 0.1 mg/ml): ~50%
reduction of percentage of A549 cells infected with HRSV ([7]; 2.7 mg/ml): ~85%
percentage of A549 cells infected with increasing concentrations ([7]; days 1 and 2 after inoculation): significant reduction
Percent plaque area (ImageJ) ([8]; 0.1 mM): 8.1% and 8.3%
Percent plaque area (ImageJ) ([8]; 0.4 mM): 14.3% and 7.3%
Percent plaque area (ImageJ) ([8]; 1.2 mM): 4.8% and 3.8%
HSV-1 plaques observed in wells ([8]; Li2-ADPR 0.1 mM): plaques similar in number and size as the untreated wells
HSV-1 plaques observed in wells ([8]; Li2-ADPR increased from 0.4 to 1.2 mM): the plaque number decreased and the plaque size decreased
lung IFNγ mRNA (normalized to beta actin) [9]: increase

Nc1nc2c(ncn2COCCO)c(=O)[nH]1 [Acyclovir]
Toxicity Grade on Vero Cells ([10]; 0.1 μM): 0
Toxicity Grade on Vero Cells ([10]; 2 μM): 0
Toxicity Grade on Vero Cells ([10]; 50 μM): 0
HSV-1 plaques observed in wells ([8]; Acyclovir 0.002 mM): more smaller plaques, but not as many nor as large as the untreated wells
HSV-1 plaques observed in wells ([8]; acyclovir 0.05 mM): few small breakthrough plaques
